# ChEMBL document CHEMBL1149176, “(2R)-2-ethylchromane-2-carboxylic acids: discovery of novel PPARalpha/gamma dual agonists as antihyperglycemic and hypolipidemic agents” (J Med Chem, 2004)
# What was measured:
# [1] = target: T1, Peroxisome proliferator-activated receptor gamma (Homo sapiens, UniProt P37231); assay: In vitro binding affinity for human peroxisome proliferator activated receptor gamma using scintillation proximity assay (SPA)
# T1 sequence (P37231 whole entry): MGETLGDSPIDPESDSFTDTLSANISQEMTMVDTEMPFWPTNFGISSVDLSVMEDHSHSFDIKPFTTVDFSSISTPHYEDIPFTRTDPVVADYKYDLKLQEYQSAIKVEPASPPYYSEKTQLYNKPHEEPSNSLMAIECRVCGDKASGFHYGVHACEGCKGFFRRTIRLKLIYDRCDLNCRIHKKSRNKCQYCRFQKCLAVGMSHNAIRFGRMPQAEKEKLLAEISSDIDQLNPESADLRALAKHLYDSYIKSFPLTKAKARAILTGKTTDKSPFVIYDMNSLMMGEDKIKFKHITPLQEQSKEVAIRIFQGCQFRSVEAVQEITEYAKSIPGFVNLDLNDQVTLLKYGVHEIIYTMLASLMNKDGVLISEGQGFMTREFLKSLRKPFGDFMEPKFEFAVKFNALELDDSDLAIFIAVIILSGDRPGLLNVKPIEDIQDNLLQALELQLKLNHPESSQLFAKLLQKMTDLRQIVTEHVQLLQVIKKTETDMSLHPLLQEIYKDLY
# [2] = target: T2, Peroxisome proliferator-activated receptor alpha (Homo sapiens, UniProt Q07869); assay: In vitro potency of PPAR gene activation against human Peroxisome proliferator activated receptor alpha using chimeric Gal4-hPPAR transactivation assay (TA)
# T2 sequence (Q07869 whole entry): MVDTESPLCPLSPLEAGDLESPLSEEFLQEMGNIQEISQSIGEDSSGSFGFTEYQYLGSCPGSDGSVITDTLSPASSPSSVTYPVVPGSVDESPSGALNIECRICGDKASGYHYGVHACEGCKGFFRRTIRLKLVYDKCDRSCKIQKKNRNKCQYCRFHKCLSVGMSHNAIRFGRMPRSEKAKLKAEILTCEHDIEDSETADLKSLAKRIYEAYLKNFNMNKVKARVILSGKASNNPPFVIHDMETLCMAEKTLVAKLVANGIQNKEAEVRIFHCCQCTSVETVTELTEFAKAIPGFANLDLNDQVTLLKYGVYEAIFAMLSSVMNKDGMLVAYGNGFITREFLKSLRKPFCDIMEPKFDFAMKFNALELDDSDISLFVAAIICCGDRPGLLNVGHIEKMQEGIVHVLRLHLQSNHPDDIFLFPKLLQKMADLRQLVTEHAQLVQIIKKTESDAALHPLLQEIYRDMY
# [3] = target: T1, Peroxisome proliferator-activated receptor gamma
# Description: In vitro potency of PPAR gene activation against human PPAR gamma receptor using chimeric Gal4-hPPAR transactivation assay (TA)
# [4] = target: T3, Peroxisome proliferator-activated receptor delta (Homo sapiens, UniProt Q03181)
# T3 sequence (Q03181 whole entry): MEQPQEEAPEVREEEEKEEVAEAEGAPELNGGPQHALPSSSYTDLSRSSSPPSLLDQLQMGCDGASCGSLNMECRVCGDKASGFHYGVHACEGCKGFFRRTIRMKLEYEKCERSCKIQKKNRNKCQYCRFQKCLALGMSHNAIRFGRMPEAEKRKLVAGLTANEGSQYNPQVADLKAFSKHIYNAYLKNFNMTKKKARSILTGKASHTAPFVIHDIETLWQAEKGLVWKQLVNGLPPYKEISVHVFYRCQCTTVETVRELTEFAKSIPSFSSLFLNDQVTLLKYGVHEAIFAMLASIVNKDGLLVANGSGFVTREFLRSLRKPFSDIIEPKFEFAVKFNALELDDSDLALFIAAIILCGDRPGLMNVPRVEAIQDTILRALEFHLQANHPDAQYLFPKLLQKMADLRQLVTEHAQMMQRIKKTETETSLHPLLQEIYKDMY
# [5] = target: T2, Peroxisome proliferator-activated receptor alpha
# Description: In vitro binding affinity for human peroxisome proliferator activated receptor alpha using scintillation proximity assay (SPA)
# [6] = target: T2, Peroxisome proliferator-activated receptor alpha; assay: In vitro transcriptional activation by human PPAR alpha Gal4 chimera; Not active
# [7] = target: T1, Peroxisome proliferator-activated receptor gamma; remark: listed apart in the source
# Description: In vitro binding affinity for human PPAR gamma receptor using scintillation proximity assay (SPA)
# [8] = Dose-normalized area under curve in monkey (p.o.) at 2.0 mpk; assay type: ADME; conditions: cercopithecidae, in vivo, po, 2 mg/kg
# [9] = tested on: Rattus norvegicus; assay: Lower clearance in rat (i.v.) at 0.5 mpk; assay type: ADME, organism-based; conditions: in vivo, iv, 0.5 mg/kg
# [10] = Longer half-life in monkey (i.v.) at 0.5 mpk; assay type: ADME, organism-based; conditions: cercopithecidae, in vivo, iv, 0.5 mg/kg
# [11] = Lower clearance in monkey (i.v.) at 0.5 mpk; assay type: ADME, organism-based; conditions: cercopithecidae, in vivo, iv, 0.5 mg/kg
# [12] = Bioavailability in monkey (p.o.) at 2.0 mpk; assay type: ADME, organism-based; conditions: cercopithecidae, in vivo, po, 2 mg/kg
# [13] = tested on: Canis familiaris; assay: Dose-normalized area under curve in dog (p.o.) at 2.0 mpk; assay type: ADME, organism-based, Canis lupus familiaris; conditions: in vivo, po, 2 mg/kg
# [14] = tested on: Canis familiaris; assay: Lower clearance in dog (i.v.) at 0.5 mpk; assay type: ADME, organism-based, Canis lupus familiaris; conditions: in vivo, iv, 0.5 mg/kg
# [15] = Bioavailability in dog (p.o.) at 2.0 mpk; assay type: ADME, organism-based, Canis lupus familiaris; conditions: in vivo, po, 2 mg/kg
# [16] = tested on: Rattus norvegicus; assay: Dose-normalized area under curve in rat (i.v.) at 0.5 mpk; assay type: ADME, organism-based; conditions: in vivo, iv, 0.5 mg/kg
# [17] = tested on: Rattus norvegicus; assay: Dose-normalized area under curve in rat (p.o.) at 2.0 mpk; assay type: ADME, organism-based; conditions: in vivo, po, 2 mg/kg
# [18] = Longer half-life in dog (i.v.) at 0.5 mpk; assay type: ADME, organism-based, Canis lupus familiaris; conditions: in vivo, iv, 0.5 mg/kg
# [19] = Bioavailability in rat (dose 2.0 mg/kg p.o.); assay type: ADME, organism-based; conditions: in vivo, po
# [20] = Longer half-life in rat (i.v.) at 0.5 mpk; assay type: ADME, organism-based; conditions: in vivo, iv, 0.5 mg/kg
# [21] = Longer half-life in rat (p.o.) at 2.0 mpk; assay type: ADME, organism-based; conditions: in vivo, po, 2 mg/kg
# [22] = tested on: Canis familiaris; assay: In vivo percent change in serum cholesterol in dogs at 1 mg/kg; assay type: functional, Canis lupus familiaris
# [23] = tested on: Canis familiaris; assay: In vivo percent change in serum cholesterol in dogs at 3 mg/kg; assay type: functional, Canis lupus familiaris
# [24] = tested on: Cricetinae gen. sp.; assay: In vivo percent change in serum cholesterol in hamsters at 10 mg/kg; assay type: functional, Cricetulus griseus
# [25] = tested on: Cricetinae gen. sp.; assay: In vivo percent change in serum cholesterol in hamsters at 3 mg/kg; assay type: functional, Cricetulus griseus
# [26] = tested on: Cricetinae gen. sp.; assay: In vivo percent change in triglyceride in hamsters at 3 mg/kg; assay type: functional, Cricetulus griseus
# [27] = tested on: Cricetinae gen. sp.; assay: In vivo percent change in triglyceride in hamsters at 10 mg/kg; assay type: functional, Cricetulus griseus
# [28] = tested on: Cricetinae gen. sp.; assay: In vivo serum cholesterol in hamsters at 10 mg/kg; assay type: functional, Cricetulus griseus
# [29] = tested on: Cricetinae gen. sp.; assay: In vivo triglyceride in hamsters at 10 mg/kg; assay type: functional, Cricetulus griseus
# [30] = tested on: Cricetinae gen. sp.; assay: In vivo triglyceride in hamsters at 3 mg/kg; assay type: functional, Cricetulus griseus
# [31] = (§1) In vitro transcriptional activation by human PPAR gamma Gal4 chimera
# [32] = target: T4, Peroxisome proliferator-activated receptor gamma (Mus musculus, UniProt P37238); assay: In vitro transcriptional activation by PPAR gamma
# T4 sequence (P37238 whole entry): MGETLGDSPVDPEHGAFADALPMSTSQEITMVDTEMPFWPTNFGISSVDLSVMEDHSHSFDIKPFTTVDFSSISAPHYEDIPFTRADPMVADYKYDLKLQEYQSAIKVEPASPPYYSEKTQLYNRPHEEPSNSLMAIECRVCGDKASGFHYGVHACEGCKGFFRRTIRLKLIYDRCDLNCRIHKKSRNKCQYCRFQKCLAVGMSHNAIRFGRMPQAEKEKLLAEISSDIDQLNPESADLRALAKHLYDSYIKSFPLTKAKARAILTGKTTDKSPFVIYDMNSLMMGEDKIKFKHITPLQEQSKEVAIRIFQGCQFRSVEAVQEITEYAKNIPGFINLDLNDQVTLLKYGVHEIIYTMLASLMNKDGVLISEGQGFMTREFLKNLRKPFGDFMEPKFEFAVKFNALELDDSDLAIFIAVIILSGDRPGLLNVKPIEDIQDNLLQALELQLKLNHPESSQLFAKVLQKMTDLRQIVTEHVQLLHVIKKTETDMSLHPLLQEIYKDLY
# [33] = tested on: Mesocricetus auratus; assay: In vivo serum cholesterol in Golden Syrian hamsters at 3 mg/kg
# [34] = target: T1, Peroxisome proliferator-activated receptor gamma; assay: as §1
smiles,measurement,setting,value
CCCc1cc(Oc2ccccc2)ccc1OCCCOc1ccc2c(c1)OC(CC)(C(=O)O)CC2 (stereo not given),IC50,[1],440 nM
same,EC50,[2],30 nM
same,EC50,[3],1000 nM
same,IC50,[4],> 50000 nM
same,IC50,[5],360 nM
CCCc1cc(Oc2ccccc2)ccc1OCCCOc1ccc2c(c1)OC(C(=O)O)CC2 (stereo not given),IC50,[1],980 nM
same,EC50,[2],3000 nM
same,EC50,[3],7300 nM
same,IC50,[4],170 nM
same,IC50,[5],1500 nM
CCCc1cc(Oc2ccccc2)ccc1OCCCOc1ccc2c(c1)CCC(C)(C(=O)O)O2 (stereo not given),IC50,[1],1700 nM
same,EC50,[6],Not Active
same,EC50,[3],6800 nM
same,IC50,[4],> 50000 nM
same,IC50,[5],3300 nM
CCCc1cc(Oc2ccccc2)ccc1OCCCOc1ccc2c(c1)OC(CC(C)C)(C(=O)O)CC2 (stereo not given),IC50,[1],1200 nM
same,IC50,[4],5000 nM
same,IC50,[5],3000 nM
CCC1(C(=O)O)CCc2ccc(OCCCOc3ccc(Oc4ccccc4)cc3Cl)cc2O1 (stereo not given),EC50,[2],30 nM
same,EC50,[3],160 nM
same,IC50,[4],> 15000 nM
same,IC50,[7],690 nM
same,IC50,[5],120 nM
CCCc1cc(Oc2ccccc2)ccc1OCCCOc1ccc2c(c1)OC(CCC)(C(=O)O)CC2 (stereo not given),IC50,[1],370 nM
same,EC50,[2],120 nM
same,EC50,[3],830 nM
same,IC50,[4],> 50000 nM
same,IC50,[5],2100 nM
CCCc1cc(Oc2ccccc2)ccc1OCCCCOc1ccc2c(c1)OC(C(=O)O)CC2 (stereo not given),IC50,[1],1800 nM
same,EC50,[2],6300 nM
same,EC50,[3],1600 nM
same,IC50,[4],> 15000 nM
same,IC50,[5],> 15000 nM
CC[C@]1(C(=O)O)CCc2ccc(OCCCOc3ccc(Oc4ccc(F)cc4)cc3Cl)cc2O1,nAUC,[8],1.7 µM·h
same,Clp,[9],3.4 mL/min/kg
same,half-life,[10],3.5 h
same,Clp,[11],8.6 mL/min/kg
same,bioavailability,[12],43%
same,nAUC,[13],9.2 µM·h
same,Clp,[14],3.5 mL/min/kg
same,bioavailability,[15],92%
same,nAUC,[16],10 µM·h
same,nAUC,[17],4.8 µM·h
same,half-life,[18],10 h
same,bioavailability,[19],48%
same,half-life,[20],4.6 h
same,half-life,[21],3.7 h
same,Change,[22],-23.3%
same,Change,[23],-31.6%
same,Change,[24],-40%
same,Change,[25],-21%
same,Change,[26],-27%
same,Change,[27],-48%
same,Activity,[28],65 mg/dL
same,Activity,[29],159 mg/dL
same,Activity,[30],222 mg/dL
same,EC50,[31],140 nM
same,EC50,[32],150 nM
same,IC50,[4],> 15000 nM
same,Activity,[33],85 mg/dL
CCC1(C(=O)O)CCc2ccc(OCCCOc3ccc(Oc4ccccc4)cc3)cc2O1 (stereo not given),IC50,[1],> 15000 nM
same,EC50,[34],10000 nM
same,EC50,[2],220 nM
same,IC50,[4],> 50000 nM
same,IC50,[5],1700 nM
CC1(C(=O)O)CCc2ccc(OCCCOc3ccc(Oc4ccccc4)cc3Cl)cc2O1 (stereo not given),IC50,[1],1400 nM
same,EC50,[34],360 nM
same,EC50,[2],80 nM
same,IC50,[4],> 15000 nM
same,IC50,[5],120 nM
CCCc1cc(Oc2ccc(Cl)cc2)ccc1OCCCOc1ccc2c(c1)OC(CC)(C(=O)O)CC2 (stereo not given),IC50,[1],1400 nM
same,EC50,[2],210 nM
same,EC50,[3],670 nM
same,IC50,[4],> 50000 nM
same,IC50,[5],4000 nM
